# Laboratory results taken from patent publication US20140135319A1, “6-SUBSTITUTED IMIDAZOPYRAZINES FOR USE AS MPS-1 AND TKK INHIBITORS IN THE TREATMENT OF HYPERPROLIFERATIVE DISORDERS” (BAYER INTELLECTUAL PROPERTY GMBH, priority 2010, published 2014).
# Molecular target: T1, human kinase Mps-1 (Homo sapiens, UniProt P33981)
# T1 construct: N-terminally GST-tagged human full length recombinant Mps-1 kinase; GST (N); purchased Invitrogen, Karslruhe, Germany PV4071
# T1 sequence (P33981 1-857): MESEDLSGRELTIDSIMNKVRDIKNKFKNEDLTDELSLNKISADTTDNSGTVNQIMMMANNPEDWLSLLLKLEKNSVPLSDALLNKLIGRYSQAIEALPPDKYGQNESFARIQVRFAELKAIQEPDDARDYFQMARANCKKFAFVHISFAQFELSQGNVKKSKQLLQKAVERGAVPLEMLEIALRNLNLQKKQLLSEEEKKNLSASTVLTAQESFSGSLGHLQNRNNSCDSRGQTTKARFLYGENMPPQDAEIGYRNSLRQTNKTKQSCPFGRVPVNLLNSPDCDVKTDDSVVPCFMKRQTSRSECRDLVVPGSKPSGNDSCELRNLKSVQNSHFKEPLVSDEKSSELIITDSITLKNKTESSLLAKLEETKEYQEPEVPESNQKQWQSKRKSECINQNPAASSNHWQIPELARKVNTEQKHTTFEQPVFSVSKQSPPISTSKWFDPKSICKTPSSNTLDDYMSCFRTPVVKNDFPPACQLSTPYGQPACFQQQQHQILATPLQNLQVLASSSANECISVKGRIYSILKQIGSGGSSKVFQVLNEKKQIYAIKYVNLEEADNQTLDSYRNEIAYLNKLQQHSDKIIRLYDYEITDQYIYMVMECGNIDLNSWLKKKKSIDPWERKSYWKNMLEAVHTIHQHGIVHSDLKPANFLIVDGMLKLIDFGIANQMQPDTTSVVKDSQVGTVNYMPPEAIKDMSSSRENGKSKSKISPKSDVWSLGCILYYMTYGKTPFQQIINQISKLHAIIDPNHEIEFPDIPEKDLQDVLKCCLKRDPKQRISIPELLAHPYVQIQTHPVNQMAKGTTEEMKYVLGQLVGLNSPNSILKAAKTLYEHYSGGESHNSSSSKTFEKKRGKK
# Assay: Mps-1 kinase assay (TR-FRET)
# Type: biochemical
# Conditions: GST-tagged human full length recombinant Mps-1; 10 μM ATP; 1 μM peptide substrate; 60 min at 22° C.
# Method: The human kinase Mps-1 phosphorylates a biotinylated substrate peptide. Detection of the phosphorylated product is achieved by time-resolved fluorescence resonance energy transfer (TR-FRET) from Europium-labelled anti-phospho-Serine/Threonine antibody as donor to streptavidin labelled with cross-linked allophycocyanin (SA-XLent) as acceptor. Compounds are tested for their inhibition of the kinase activity.
# N-terminally GST-tagged human full length recombinant Mps-1 kinase (purchased from Invitrogen, Karslruhe, Germany, cat. no PV4071) was used. As substrate for the kinase reaction a biotinylated peptide of the amino-acid sequence […] (C-terminus in amide form, purchased from Biosynthan GmbH, Berlin) was used.
# The concentration of Mps-1 in the assay was adjusted to the activity of the enzyme lot and was chosen appropriate to have the assay in the linear range, typical enzyme concentrations were in the range of about 1 nM (final conc. in the 5 μl assay volume).
# The resulting mixture was incubated 1 h at 22° C. to allow the binding of the phosphorylated peptide to the anti-phospho(Ser/Thr)-Europium-antibody. Subsequently the amount of phosphorylated substrate was evaluated by measurement of the resonance energy transfer from the Europium-labelled anti-phospho(Ser/Thr) antibody to the Streptavidin-XLent. Therefore, the fluorescence emissions at 620 nm and 665 nm after excitation at 350 nm was measured in a Viewlux TR-FRET reader (PerkinElmer LAS, Rodgau-Jügesheim, Germany). The “blank-corrected normalized ratio” (a Viewlux specific readout, similar to the traditional ratio of the emissions at 665 nm and at 622 nm, in which blank and Eu-donor crosstalk are subtracted from the 665 nm signal before the ratio is calculated) was taken as the measure for the amount of phosphorylated substrate.
row,IC50 [nM],SMILES
1,2.1,"O=C(NC1CC1)c1ccc(-c2cnc3c(NCc4ccncc4)nc(-c4ccncc4)cn23)cc1 [Example 3-19, N-cyclopropyl-4-{6-(pyridin-4-yl)-8-[(pyridin-4-ylmethyl)amino]imidazo [1,2-a]pyrazin-3-yl} benzamide]"
2,12.7,"COc1ncc(-c2cn3c(-c4ccc(C(=O)NC5CC5)cc4)cnc3c(NCC(C)C)n2)cn1 [Example 1-3, N-cyclopropyl-4-{6-(2-methoxypyrimidin-5-yl)-8-[(2-methylpropyl)amino]imidazo[1,2-a]pyrazin-3-yl}benzamide]"
3,19.2,"NCCCCNc1nc(-c2cccc(CC(N)=O)c2)cn2c(-c3ccc(C(=O)NC4CC4)cc3)cnc12 [Example 1-95, 4-{8-[(4-Aminobutyl)amino]-6-[3-(2-amino-2-oxoethyl)phenyl]imidazo[1,2-a]pyrazin-3-yl}-N-cyclo-propylbenzamide]"
4,6.2,"CC(C)CNc1nc(-c2ccncc2)cn2c(-c3ccc(C(=O)NC4CC4)c(Cl)c3)cnc12 [Example 1-32, 2-chloro-N-cyclopropyl-4-{8-[(2-methylpropyl)amino]-6-(pyridin-4-yl)imidazo[1,2-a]pyrazin-3-yl}benzamide]"
5,17.8,"Cn1nccc1-c1cn2c(-c3ccc(C(=O)NC4CC4)cc3)cnc2c(NCC(C)(C)O)n1 [Example 1-97, N-cyclopropyl-4-{8-[(2-hydroxy-2-methylpropyl)amino]-6-(1-methyl-1H-pyrazol-5-yl)imidazo[1,2-a]pyrazin-3-yl}benzamide]"
6,4.9,"Cn1cc(CNc2nc(-c3cccc(CC(N)=O)c3)cn3c(-c4ccc(C(=O)NC5CC5)cc4)cnc23)cn1 [Example 1-93, 4-(6-[3-(2-Amino-2-oxo-ethyl)phenyl]-8-{[(1-methyl-1H-pyrazol-4-yl)methyl]amino}imidazo[1,2-a]pyrazin-3-yl)-N-cyclopropyl benzamide]"
7,55.4,"Cc1ccc(-c2cn3c(-c4ccc(C(=O)NC5CC5)cc4)cnc3c(NCC(C)C)n2)s1 [Example 1-15, N-cyclopropyl-4-{8-[(2-methylpropyl)amino]-6-(5-methylthiophen-2-yl)imidazo[1,2-a]pyrazin-3-yl}benzamide]"
8,16.5,"CC(C)CNc1nc(-c2cncnc2)cn2c(-c3ccc(C(=O)NC4CC4)cc3)cnc12 [Example 1-17, N-cyclopropyl-4-{8-[(2-methylpropyl)amino]-6-(pyrimidin-5-yl)imidazo [1,2-a]pyrazin-3-yl} benzamide]"
9,35.7,"CC(C)CNc1nc(-c2ccn[nH]2)cn2c(-c3ccc(C(=O)NC4CC4)c(Cl)c3)cnc12 [Example 1-34, 2-chloro-N-cyclopropyl-4-{8-[(2-methylpropyl)amino]-6-(1H-pyrazol-5-yl)imidazo[1,2-a]pyrazin-3-yl}benzamide]"
10,5.5,"COCCCNc1nc(-c2ccncc2)cn2c(-c3ccc(C(=O)NC4CC4)cc3)cnc12 [Example 3-24, N-cyclopropyl-4-{8-[(3-methoxypropyl)amino]-6-(pyridin-4-yl)imidazo [1,2-a]pyrazin-3-yl} benzamide]"
11,21.4,"Cc1cc(-c2cnc3c(NCCC(F)(F)F)nc(-c4cncnc4)cn23)ccc1C(=O)NC1CC1 [Example 1-73, N-cyclopropyl-2-methyl-4-{6-(pyrimidin-5-yl)-8-[(3,3,3-trifluoropropyl)amino]imidazo[1,2-a]pyrazin-3-yl}benzamide]"
12,40.9,"O=C(NC1CC1)c1ccc(-c2cnc3c(NCC4CCCO4)nc(-c4ccncc4)cn23)cc1Cl (stereo not shown) [Example 1-42, 2-chloro-N-cyclopropyl-4-{6-(pyridin-4-yl)-8-[(tetrahydrofuran-2-ylmethyl)amino]imidazo [1,2-a]pyrazin-3-yl} benzamide]"
13,18.3,"O=C(NC1CC1)c1ccc(-c2cnc3c(NCC4CCCO4)nc(-c4ccoc4)cn23)cc1F (stereo not shown) [Example 1-62, N-cyclopropyl-2-fluoro-4-{6-(furan-3-yl)-8-[(tetrahydrofuran-2-ylmethyl)amino]imidazo [1,2-a]pyrazin-3-yl} benzamide]"
14,2.4,"O=C(NC1CC1)c1ccc(-c2cnc3c(NCC4CCCO4)nc(-c4ccncc4)cn23)cc1 (stereo not shown) [Example 3-7, N-cyclopropyl-4-{6-(pyridin-4-yl)-8-[(tetrahydrofuran-2-ylmethyl)amino]imidazo[1,2-a]pyrazin-3-yl}benzamide]"
15,1.9,"O=C(NC1CC1)c1ccc(-c2cnc3c(NCc4ccc(F)cc4)nc(-c4ccncc4)cn23)cc1 [Example 3-10, N-cyclopropyl-4-{8-[(4-fluorobenzyl)amino]-6-(pyrdin-4-yl)imidazo [1,2-a]pyrazin-3-yl} benzamide]"
16,1.3,"Cc1cc(-c2cnc3c(NCCC(F)(F)F)nc(-c4ccncc4)cn23)ccc1C(=O)NC1CC1 [Example 1-103, N-cyclopropyl-2-methyl-4-{6-(pyridin-4-yl)-8-[(3,3,3-trifluoropropyl)amino]imidazo[1,2-a]pyrazin-3-yl}benzamide]"
17,19.4,"CC(C)CNc1nc(-c2cncc(C(=O)NC(C)(C)C)c2)cn2c(-c3ccc(C(=O)NC4CC4)cc3)cnc12 [Example 1-24, N-tert-butyl-5-{3-[4-(cyclopropylcarbamoyl)phenyl]-8-[(2-methyl-propyl)amino]imidazo [1,2-a]pyrazin-6-yl} pyridine-3-carboxamide]"
18,142,"CC(C)CNc1nc(-c2cc3ccccc3s2)cn2c(-c3ccc(C(=O)NC4CC4)cc3)cnc12 [Example 1-12, 4-{6-(1-benzothiophen-2-yl)-8-[(2-methylpropyl)amino]imidazo[1,2-a]pyrazin-3-yl}-N-cyclo-propylbenzamide]"
19,7.1,"CCOC(C)CNc1nc(-c2ccncc2)cn2c(-c3ccc(C(=O)NC4CC4)cc3)cnc12 (stereo not shown) [Example 3-30, N-cyclopropyl-4-{8-[(2-ethoxypropyl)amino]-6-(pyridin-4-yl)imidazo [1,2-a]pyrazin-3-yl} benzamide]"
20,199,"Cc1cc(-c2cnc3c(NCC4CCC(N(C)C)CC4)nc(C4=CCOCC4)cn23)ccc1C(=O)NC1CC1 (stereo not shown) [Example 6-18, N-cyclopropyl-4-[6-(3,6-dihydro-2H-pyran-4-yl)-8-({[4-(dimethylamino)cyclohexyl]methyl}amino)imidazo[1,2-a]pyrazin-3-yl]-2-methylbenzamide]"
21,9.9,"CCOc1ccc(-c2cn3c(-c4ccc(C(=O)NC5CC5)c(C)c4)cnc3c(NCCC(F)(F)F)n2)cn1 [Example 1-72, N-cyclopropyl-4-{6-(6-ethoxypyridin-3-yl)-8-[(3,3,3-trifluoropropyl)amino]imidazo[1,2-a]pyrazin-3-yl}-2-methyl-benzamide]"
22,1.4,"CC(C)CNc1nc(C2=CCOCC2)cn2c(-c3ccc(C(=O)NC4CC4)cc3)cnc12 [Example 1-29, N-cyclopropyl-4-{6-(3,6-dihydro-2H-pyran-4-yl)-8-[(2-methylpropyl)amino]imidazo[1,2-a]pyrazin-3-yl}benzamide]"
23,3.3,"CC(C)CNc1nc(-c2ccc(CN(C)C)cc2)cn2c(-c3ccc(C(=O)NC4CC4)cc3)cnc12 [Example 1-31, N-cyclopropyl-4-(6-{4-[(dimethylamino)methyl]phenyl}-8-[(2-methyl-propyl)amino]imidazo [1,2-a]pyrazin-3-yl) benzamide]"
24,15.7,"Cn1nccc1CNc1nc(C2=CCOCC2)cn2c(-c3ccc(C(=O)NC4CC4)c(F)c3)cnc12 [Example 1-67, N-cyclopropyl-4-[6-(3,6-dihydro-2H-pyran-4-yl)-8-{[(1-methyl-1H-pyrazol-5-yl)methyl]amino}imidazo[1,2-a]pyrazin-3-yl]-2-fluoro-benzamide]"
25,6.5,"Cn1nccc1CNc1nc(-c2ccncc2)cn2c(-c3ccc(C(=O)NC4CC4)c(F)c3)cnc12 [Example 1-64, N-cyclopropyl-2-fluoro-4-[8-{[(1-methyl-1H-pyrazol-5-yl)methyl]amino}-6-(pyridin-4-yl)imidazo[1,2-a]pyrazin-3-yl]benzamide]"
